Results as given in patent publication US20080249001A1, “AGENTS THAT ALLEVIATE SIDE-EFFECTS CAUSED BY CHEMOTHERAPY AGENTS” (priority 2006, published 2008).
Structures can show the parent of a compound that is named as a salt. Bridges are numbered along the chain shown (N, C = ends). Where no end group is shown, it is not given here.

Assays:
[1] = tested on: mouse bone-marrow cells (CFU-E colonies); assay: in vitro CFU-E colony assay in methylcellulose semisolid medium under the existence of EPO; type: cell-based; settings: for CFU-E inhibiting action (inhibition of expression of CFU-E colonies) / CFU-E inhibiting action (expression of CFU-E colonies): 48 hours
Procedure: (§1) More specifically, the in vitro colony assay method wherein a methylcellulose semisolid medium is used is generally used as the method for determining CFU-E. It is the most suitable experimental system for finding the action of improving the decrease of CFU-E caused by chemotherapy agents. […] In the oral administration to rats, the single administration of 1.2 g/kg of arginine makes the blood concentration thereof reach around 600 μM. Therefore, the increase of CFU-E dependent on the administered dose is expected in the oral administration. In human beings, too, it is expected that the number of CFU-E increases depending on the blood concentration of arginine by the oral administration.
The in vitro CFU-E colony assay was conducted as follows. After making a male BDF-1 mouse of 11 weeks old (by Charles River Laboratories Japan, Inc.) die by the cervical dislocation method, the bone-marrow cells were isolated from the thighbone and suspended in the IMDM medium (by Invitrogen Corporation) which contained 10% FCS (by JRH Biosciences). The bone-marrow cells were centrifuged at 1500 rpm for 10 minutes at 4° C. Then, the precipitated bone-marrow cells were substituted on the IMDM medium without an amino acid, and the number of the cells was determined. 1 mL of a methylcellulose semisolid medium wherein the bone-marrow cells were suspended in the IMDM medium of ⅓ concentration (0.03, 0.1, 0.3 and 1.0 U/mL of rHuEPO by Chugai Pharmaceutical Co., Ltd.; 100 μM of 2-mercaptoethanol by Wako Pure Chemical Industries, Ltd.; 15% FCS by JRH Biosciences; 0.8% methylcellulose, IMDM solution M3134 containing methylcellulose by StemCell Technologies Inc.; 1% BSA by Sigma-Aldrich Japan K.K.; and bone-marrow cells 2.5×10^5/mL) was added to a dish of 3.5 cm in diameter (Nalge Nunc International K.K.). After the medium was cultured at 37° C. under 5% CO2 for 48 hours, the number of CFU-E colonies was determined by using an inverted microscope. […] Data is indicated as the average value.
The in vitro CFU-E colony assay was conducted in the EPO concentration of the maximal action amount thereof. […] Then, the number of CFU-E colonies was determined by using an inverted microscope. […] Data is indicated as the average value.
The CFU-E colony assay was conducted by the same method as that of Example 1. […] Data is indicated as the average value. The vertical axis is the relative value (%) when regarding the number of CFU-E colonies in the control case as 100%.
The in vitro CFU-E colony assay was conducted in the EPO concentration of the maximal action amount thereof. The bone-marrow cells were prepared by the same method as that of Example 1, using a male BDF-1 mouse of 12 weeks old (by Charles River Laboratories Japan, Inc.). Irinotecan hydrochloride was further added to a methylcellulose semisolid medium wherein the bone-marrow cells were suspended in the IMDM medium of ⅓ concentration (1.0 U/mL of rHuEPO by Chugai Pharmaceutical Co., Ltd.; 100 μM of 2-mercaptoethanol by Wako Pure Chemical Industries, Ltd.; 30% FCS by JRH Biosciences; 0.8% methylcellulose, IMDM solution M3134 containing methylcellulose by StemCell Technologies Inc.; 1% BSA by Sigma-Aldrich Japan K.K.; and bone-marrow cells 2.5×10^5/mL), so that the final concentration of irinotecan hydrochloride became 1 μM and 10 μM. After the medium was cultured at 37° C. under 5% CO2 for 48 hours, the number of CFU-E colonies was determined by using an inverted microscope. […] Data is indicated as the average value.
The CFU-E colony assay was conducted by the same method as that of above (1), using a male BDF-1 mouse of 11 weeks old (by Charles River Laboratories Japan, Inc.). The medium to which only 3 μM of irinotecan hydrochloride in its final concentration was added and the medium to which irinotecan hydrochloride in the same concentration as above and 600 uM of arginine were simultaneously further added were prepared and the number of CFU-E colonies was determined. […]

[2] = tested on: mouse bone-marrow cells (CFU-E colonies); assay: in vitro CFU-E colony assay under the existence of EPO mimic peptide EMP1; type: cell-based
Procedure: The bone-marrow cells were prepared by the same method as that of Example 1, using a male BDF-1 mouse of 10 weeks old (by Charles River Laboratories Japan, Inc.). 1 mL of a methylcellulose semisolid medium wherein the bone-marrow cells were suspended in the IMDM medium of ⅓ concentration (1, 3, 10 and 30 μM of EMP1; 100 μM of 2-mercaptoethanol by Wako Pure Chemical Industries, Ltd.; 24% FCS by JRH Biosciences; 0.8% methylcellulose, IMDM solution M3134 containing methylcellulose by StemCell Technologies Inc.; 2% BSA by Sigma-Aldrich Japan K.K.; and bone-marrow cells 2×10^5/mL) was added to a dish of 3.5 cm in diameter (Nalge Nunc International K.K.). After the medium was cultured at 37° C. under 5% CO2 for 48 hours, the number of CFU-E colonies was determined by using an inverted microscope. […] Data is indicated as the average value.
The in vitro CFU-E colony assay was conducted in the EMP1 concentration of the maximal action amount thereof. The bone-marrow cells were prepared by the same method as that of Example 1, using a male BDF-1 mouse of 10 weeks old (by Charles River Laboratories Japan, Inc.). […] After each medium was cultured at 37° C. under 5% CO2 for 48 hours, the number of CFU-E colonies was determined by using an inverted microscope. […] Data is indicated as the average value. The vertical axis is the relative value (%) when regarding the number of CFU-E colonies in the control case as 100%.

[3] = blood concentration of arginine after oral administration to rats; type: in vivo; settings: single administration of 1.2 g/kg
Procedure: as §1

COc1cc([C@@H]2c3cc4c(cc3[C@@H](O[C@@H]3O[C@@H]5CO[C@@H](C)O[C@H]5[C@H](O)[C@H]3O)[C@H]3COC(=O)[C@H]23)OCO4)cc(OC)c1O [VP-16, etoposide]
CFU-E inhibiting action (inhibition of expression of CFU-E colonies) ([1]; 1 nM VP-16, 1 U/mL EPO, FIG. 2): 10%
CFU-E inhibiting action (inhibition of expression of CFU-E colonies) ([1]; 10 nM VP-16, 1 U/mL EPO, FIG. 2): 30%
CFU-E inhibiting action (expression of CFU-E colonies) ([1]; 100 nM VP-16, 1 U/mL EPO, FIG. 2): nearly completely inhibited
decrease of number of CFU-E colonies due to single addition ([2]; 10 nM VP-16 alone, 30 μM EMP1, relative to control 100%, FIG. 7): about 30%

GGTYSCHFGPLTWVCKPQGG-NH2, C6-C15 disulfide bonding (disulfide 6-15; N-terminus assumed; SMILES CC(C)C[C@@H]1NC(=O)[C@@H]2CCCN2C(=O)CNC(=O)[C@H](Cc2ccccc2)NC(=O)[C@H](Cc2c[nH]cn2)NC(=O)[C@@H](NC(=O)[C@H](CO)NC(=O)[C@H](Cc2ccc(O)cc2)NC(=O)[C@@H](NC(=O)CNC(=O)CN)[C@@H](C)O)CSSC[C@@H](C(=O)N[C@@H](CCCCN)C(=O)N2CCC[C@H]2C(=O)N[C@@H](CCC(N)=O)C(=O)NCC(=O)NCC(N)=O)NC(=O)[C@H](C(C)C)NC(=O)[C@H](Cc2c[nH]c3ccccc23)NC(=O)[C@H]([C@@H](C)O)NC1=O) [EMP1]
maximal action amount (CFU-E colony formation) ([2]; EMP1 1, 3, 10 and 30 μM, 48 hours culture, FIG. 6): ≥ 10 µM

N=C(N)NCCC[C@H](N)C(=O)O [arginine]
number of CFU-E colonies improved on simultaneous addition of arginine ([1]; 600 uM arginine + 10 nM VP-16, 1 U/mL EPO, relative value to control 100%, FIG. 3): ~90%
increase of number of CFU-E colonies as compared with single addition of irinotecan hydrochloride ([1]; 600 uM arginine + 3 μM irinotecan hydrochloride, 1 U/mL EPO, FIG. 5): ~30%
blood concentration [3]: around 600 μM
number of CFU-E colonies improved on simultaneous addition of arginine ([2]; 600 μM arginine + 10 nM VP-16, 30 μM EMP1, relative value to control 100%, FIG. 7): ~90%

CCc1c2c(nc3ccc(OC(=O)N4CCC(N5CCCCC5)CC4)cc13)-c1cc3c(c(=O)n1C2)COC(=O)[C@]3(O)CC [irinotecan hydrochloride]
CFU-E inhibiting action (inhibition of expression of CFU-E colonies) ([1]; 1 μM irinotecan hydrochloride, 1 U/mL EPO, FIG. 4): 30%
CFU-E inhibiting action (expression of CFU-E colonies) ([1]; 10 μM irinotecan hydrochloride, 1 U/mL EPO, FIG. 4): nearly completely inhibited
